These are literature values, as cited in US7193081B2, “Process for preparation of cyclic prodrugs of PMEA and PMPA” (Metabasis Therapeutics, Inc., priority 2002, dated 2007).

In one data set the test system is hepatitis B. The settings on record: against hepatitis B.
Another data set concerns HIV. The settings on record: against HIV.

Regarding `Nc1ncnc2c1ncn2CCOCP(=O)(O)O` [PMEA, 9-(2-phosphonylmethoxyethyl)adenine], the antiviral activity entry in the data set on hepatitis B and in the data set on HIV was “exhibit antiviral activity” throughout.
Turning to `C[C@H](Cn1cnc2c(N)ncnc21)OCP(=O)(O)O` [PMPA, (R)-9-(2-phosphonyl-methoxypropyl)adenine], the antiviral activity result in the data set on hepatitis B and in the data set with HIV was “exhibit antiviral activity” each time.
